Laboratory results reported in patent publication US20130345215A1, “PYRAZOLOPYRIMIDONE AND PYRAZOLOPYRIDONE INHIBITORS OF TANKYRASE” (Genentech, Inc., priority 2012, published 2013).
Read-outs that look alike come from different tables or passages of the source.

Assays:
Tankyrase 1 (TNKS1) = molecular target: T1, Tankyrase 1 (TNKS1) (Homo sapiens, UniProt O95271); assay: μHTS-TNKS-IWR2 TR-FRET Binding Assay (Example 118), His6-TNKS1
T1 construct: His6-TNKS1, MW=28.2 KDa (construct: 1088-1327, 1266M)
T1 sequence (O95271 1088-1327): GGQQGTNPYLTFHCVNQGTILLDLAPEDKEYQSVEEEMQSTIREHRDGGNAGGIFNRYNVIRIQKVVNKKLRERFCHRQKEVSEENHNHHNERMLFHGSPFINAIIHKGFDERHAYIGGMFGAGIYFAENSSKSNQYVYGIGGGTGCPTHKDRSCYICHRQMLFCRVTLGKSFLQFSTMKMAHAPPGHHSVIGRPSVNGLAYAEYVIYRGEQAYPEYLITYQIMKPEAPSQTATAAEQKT
In short: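 His6-TNKS1 binding to biotin-IWR2 probe measured by TR-FRET (Eu/APC, 3.5 nM/50 nM stock) in pH 7.4 Tris buffer with DTT, BSA and NP-40; TNKS1 added from 300 nM 5× stock. Compound pre-incubated with probe and enzyme 30 min at 26 °C, then detection reagents 60 min at 26 °C; single point.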

tankyrase 2 (TNKS2) = molecular target: T2, tankyrase 2 (TNKS2) (Homo sapiens, UniProt Q9H2K2); assay: μHTS-TNKS-IWR2 TR-FRET Binding Assay (Example 118), His6-TNKS2 substituted; details: procedure in Example 118 with His6-TNKS2
T2 construct: His6-tankyrase 2 (construct: 934-1166) (His6-TNKS2)
T2 sequence (Q9H2K2 934-1166): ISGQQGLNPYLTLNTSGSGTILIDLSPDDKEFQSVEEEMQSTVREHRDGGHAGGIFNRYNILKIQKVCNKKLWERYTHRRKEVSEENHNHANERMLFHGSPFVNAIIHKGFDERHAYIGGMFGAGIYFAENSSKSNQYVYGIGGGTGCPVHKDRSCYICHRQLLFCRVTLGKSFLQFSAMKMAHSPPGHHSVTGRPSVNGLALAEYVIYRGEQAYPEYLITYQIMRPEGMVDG

[1] = Compounds I-1 to I-58, procedure in Example 118 (TR-FRET, Biotin-IWR2 60 nM, TNKS 60 nM), read-out: TNKS1 (IC50)

Molecule	IC50 (Tankyrase 1 (TNKS1))	IC50 (tankyrase 2 (TNKS2))	IC50 (Tankyrase 1 (TNKS1); [1])
Cn1ncc2c(=O)[nH]c(N3CCN(c4c(F)cc(N)cc4F)CC3)nc21 [Compound I-54, 6-[4-(4-amino-2 6-difluoro-phenyl)piperazin-1-yl]-1-methyl-5H-pyrazolo[3 4-d]pyrimidin-4-one]	0.021 µM	0.025 µM	
6-[4-(2- fluorophenyl)piperazin-1- yl]-1-methyl-5H- pyrazolo[4 3-c]pyridin-4- one [Compound I-7]		0.0412 µM	0.046 µM
Cn1ncc2c(=O)[nH]c(-c3ccc(C(F)(F)F)nc3)nc21 [Compound I-27, 1-methyl-6-[6-(trifluoromethyl)-3-pyridyl)-5H-pyrazolo[3 4-d]pyrimidin-4-one]	0.385 µM	0.428 µM	
COCCOc1cc(F)cc(N2CCN(c3nc4c(cnn4C)c(=O)[nH]3)CC2)c1 [Compound I-55, 6-[4-[3-fluoro-5-(2-methoxyethoxy)phenyl]piperazin-1-yl]-1-methyl-5H-pyrazolo[3 4-d]pyrimidin-4-one]	0.114 µM	0.147 µM	
COCCOc1cc(F)c(N2CCN(c3cc4c(cnn4C)c(=O)[nH]3)CC2)c(F)c1 [Compound I-53, 6-[4-[2 6-difluoro-4-(2-methoxyethoxy)phenyl]piperazin-1-yl]-1-methyl-5H-pyrazolo[4 3-c]pyridin-4-one]	0.026 µM	0.0193 µM	
Cn1ncc2c(=O)[nH]c(N3CCC(C#N)(c4ccccn4)CC3)nc21 [Compound I-52, 1-(1-methyl-4-oxo-5H-pyrazolo[3 4-d]pyrimidin-6-yl)-4-(2-pyridyl)piperidine-4-carbonitrile]	0.047 µM	0.0545 µM	
Cn1ncc2c(=O)[nH]c(N3CCC(O)(c4ccccn4)CC3)nc21 [Compound I-35, 6-[4-hydroxy-4-(2-pyridyl)-1-piperidyl)-1-methyl-5H-pyrazolo[3 4-d]pyrimidin-1-one]	0.069 µM	0.0945 µM	
6-[4-(4-fluorophenyl)-1- piperidyl]-1-methyl-5H- pyrazolo[4 3-c]pyridin-4- one [Compound I-8]		0.0428 µM	0.042 µM
Cn1ncc2c(=O)[nH]c(-c3ccc(C(F)(F)F)cc3)nc21 [Compound I-4, 1-methyl-6-[4-(trifluoromethyl)phenyl]-5H-pyrazolo[3 4-d]pyrimidin-4-one]	0.025 µM	0.0345 µM	
Cn1ncc2c(=O)[nH]c(N3CCN(C4CCS(=O)(=O)C4)CC3)nc21 (centres unmarked) [Compound I-36, 6-[4-(1 1-dioxothiolan-3-yl)piperazin-1-yl]-1-methyl-5H-pyrazolo[3 4-d]pyrimidin-4-one]	1.93 µM	1.6 µM	
Cn1ncc2c(=O)[nH]c(-c3ccc(C(F)(F)F)cn3)nc21 [Compound I-50, 1-methyl-6-[5-(trifluoromethyl)-2-pyridyl]-5H-pyrazolo[3 4-d]pyrimidin-4-one]	0.286 µM	0.325 µM	

Second part, led by results:

IC50 (Tankyrase 1 (TNKS1))	IC50 (tankyrase 2 (TNKS2))	Molecule	IC50 (Tankyrase 1 (TNKS1); [1])
0.039 µM	0.0471 µM	Cn1ncc2c(=O)[nH]c(N3CCN(c4ccc(F)cc4F)CC3)nc21 [Compound I-14, 6-[4-(2 4-difluorophenyl)piperazin-1-yl]-1-methyl-5H-pyrazolo[3 4-d]pyrimidin-4-one]	
0.027 µM	0.0333 µM	Cn1ncc2c(=O)[nH]c(N3CCC(C#N)(c4ccccc4)CC3)nc21 [Compound I-24, 1-(1-methyl-4-oxo-5H-pyrazolo[3 4-d]pyrimidin-6-yl)-4-phenyl-piperidine-4-carbonitrile]	
0.027 µM	0.0344 µM	Cn1ncc2c(=O)[nH]c(N3CCN(c4ccccc4F)CC3)nc21 [Compound I-3, 6-[4-(2-fluorophenyl)piperazin-1-yl]-1-methyl-5H-pyrazolo[3 4-d]pyrimidin-4-one]	
0.013 µM	0.234 µM	COCCOc1ccc(N2CCN(c3nc4c(cnn4C)c(=O)[nH]3)CC2)c(F)c1 [Compound I-30, 6-[4-[2-fluoro-4-(2-methoxyethoxy)phenyl]piperazin-1-yl]-1-methyl-5H-pyrazolo[3 4-d]pyrimidin-4-one]	
0.041 µM	0.0394 µM	Cn1ncc2c(=O)[nH]c(N3CCN(c4ccc(C(=O)O)cc4F)CC3)nc21 [Compound I-40, 3-fluoro-4-[4-(1-methyl-4-oxo-5H-pyrazolo[3 4-d]pyrimidin-6-yl)piperazin-1-yl]benzoic acid]	
0.055 µM	0.0815 µM	Cn1ncc2c(=O)[nH]c(N3CCN(c4ccc(S(C)(=O)=O)cc4F)CC3)nc21 [Compound I-21, 6-[4-(2-fluoro-4-methylsulfonyl-phenyl)piperazin-1-yl]-1-methyl-5H-pyrazolo[3 4-d]pyrimidin-4-one]	
0.026 µM	0.0246 µM	Cn1ncc2c(=O)[nH]c(N3CCN(c4ccc(-c5nnn[nH]5)cc4F)CC3)nc21 [Compound I-31, 6-[4-[2-fluoro-4-(1H-tetrazol-5-yl)phenyl]piperazin-1-yl]-1-methyl-5H-pyrazolo[3 4-d]pyrimidin-4-one]	
0.024 µM	0.0263 µM	Cn1ncc2c(=O)[nH]c(N3CCN(c4c(Cl)cccc4Cl)CC3)nc21 [Compound I-42, 6-[4-(2 6-dichlorophenyl)piperazin-1-yl]-1-methyl-5H-pyrazolo[3 4-d]pyrimidin-4-one]	
0.147 µM	0.376 µM	O=c1[nH]c(N2CCN(c3ccccc3F)CC2)nc2[nH]ncc12 [Compound I-10, 6-[4-(2-fluorophenyl)piperazin-1-yl]-1 5-dihydropyrazolo[3 4-d]pyrimidin-4-one]	
0.034 µM	0.0953 µM	Cn1ncc2c(=O)[nH]c(N3CCN(c4ccc(C(C)(C)O)cc4F)CC3)nc21 [Compound I-44, 6-[4-[2-fluoro-4-(1-hydroxy-1-methyl-ethyl)phenyl]piperazin-1-yl]-1-methyl-5H-pyrazolo[3 4-d]pyrimidin-4-one]	
0.074 µM	0.0952 µM	Cn1ncc2c(=O)[nH]c(N3CCN(c4ccccc4C#N)CC3)nc21 [Compound I-15, 2-[4-(1-methyl-4-oxo-5H-pyrazolo[3 4-d]pyrimidin-6-yl)piperazin-1-yl]benzonitrile]	
0.034 µM	0.0492 µM	Cn1ncc2c(=O)[nH]c(N3CCN(c4ccc(S(N)(=O)=O)cc4F)CC3)nc21 [Compound I-48, 3-fluoro-4-[4-(1-methyl-4-oxo-5H-pyrazolo[3 4-d]pyrimidin-6-yl)piperazin-1-yl]benzenesulfonamide]	
0.029 µM	0.0289 µM	Cn1ncc2c(=O)[nH]c(N3CCN(c4c(Cl)cncc4Cl)CC3)nc21 [Compound I-34, 6-[4-(3 5-dichloro-4-pyridyl)piperazin-1-yl]-1-methyl-5H-pyrazolo[3 4-d]pyrimidin-4-one]	
0.0109 µM	0.0187 µM	Cn1ncc2c(=O)[nH]c(N3CCN(c4c(F)cccc4F)CC3)nc21 [Compound I-2, 6-[4-(2 6-difluorophenyl)piperazin-1-yl]-1-methyl-5H-pyrazolo[3 4-d]pyrimidin-4-one]	
